Measured values reported in PubChem BioAssay (NCI).
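96-well plates; 48 h exposure; 5 concentrations. Endpoints by linear interpolation between flanking doses. Not reached: highest tested concentration assigned. Definition used: TGI = concentration required for complete inhibition of growth.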

Key:
Assay in all cases: NCI-60 cell line screen, 48 h
MDA-MB-435 = test system: MDA-MB-435
786-0 renal = test system: 786-0 renal
MALME-3M melanoma = test system: MALME-3M melanoma
OVCAR-3 ovarian = test system: OVCAR-3 ovarian
SF-539 CNS = test system: SF-539 CNS
SN12C renal = test system: SN12C renal
T-47D breast = test system: T-47D breast
UO-31 renal = test system: UO-31 renal
NCI-H522 lung = test system: NCI-H522 lung
MCF7 breast = test system: MCF7 breast
HOP-92 NSCLC = test system: HOP-92 NSCLC
MDA-MB-231 breast = test system: MDA-MB-231 breast
CCRF-CEM leukemia = test system: CCRF-CEM leukemia
SF-268 CNS = test system: SF-268 CNS
HS 578T breast = test system: HS 578T breast
KM12 colon = test system: KM12 colon
SK-MEL-2 melanoma = test system: SK-MEL-2 melanoma
BT-549 breast = test system: BT-549 breast

Measured: TGI

COc1cc(C(C[N+](=O)[O-])SC(C)=O)ccc1OCc1ccccc1 (stereo not drawn)
15.7 µM: SN12C renal
3.74 µM: 786-0 renal
10.7 µM: MCF7 breast
7.87 µM: OVCAR-3 ovarian
10.3 µM: UO-31 renal
36.2 µM: HOP-92 NSCLC
13.3 µM: MDA-MB-231 breast
10 µM: MDA-MB-435
17.5 µM: MALME-3M melanoma
4.87 µM: SF-539 CNS
> 100 µM: CCRF-CEM leukemia | SF-268 CNS
13.9 µM: NCI-H522 lung
14 µM: KM12 colon
54.5 µM: T-47D breast
23.4 µM: SK-MEL-2 melanoma
12.1 µM: HS 578T breast

CC(C)N(C(=O)C12C3C4C1C1C2C3C41I)C(C)C (stereo not drawn)
> 100 µM: 786-0 renal | MALME-3M melanoma | OVCAR-3 ovarian | SN12C renal | UO-31 renal | NCI-H522 lung | HOP-92 NSCLC | CCRF-CEM leukemia | SF-268 CNS | KM12 colon

Cc1nc(-n2nc(-c3ccccc3)cc2-c2ccccc2)sc1C(=O)/C=C/c1ccc(Cl)c(Cl)c1
54.2 µM: OVCAR-3 ovarian
33.5 µM: 786-0 renal
69.7 µM: CCRF-CEM leukemia
44.5 µM: SF-539 CNS
> 100 µM: MALME-3M melanoma | SF-268 CNS | SK-MEL-2 melanoma
23.9 µM: UO-31 renal
44.3 µM: SN12C renal
20.8 µM: KM12 colon
21.6 µM: NCI-H522 lung

N#C/C(=C\c1cc(O)ccc1O)C(N)=O
53.9 µM: CCRF-CEM leukemia
41 µM: NCI-H522 lung
not listed: MDA-MB-435 | T-47D breast | MCF7 breast | MDA-MB-231 breast | HS 578T breast | BT-549 breast
> 100 µM: all other assays above

CCc1[nH]c(=O)c2oc3cc4ccccc4cc3c2c1C(=O)O
not listed: MDA-MB-435 | T-47D breast | MCF7 breast | CCRF-CEM leukemia
> 10 µM: all other assays above

C[C@@H]1OC2(O)[C@H]3CCCN3S(=O)(=O)CCN2C1=O (stereo partly drawn)
not listed: MDA-MB-435 | T-47D breast | MCF7 breast | MDA-MB-231 breast | HS 578T breast | SK-MEL-2 melanoma | BT-549 breast
> 100 µM: all other assays above

COC(=O)n1c(C)c(C=O)c2ccc(OC)cc21
88.2 µM: MCF7 breast
89.9 µM: KM12 colon
55.2 µM: SF-539 CNS
47.2 µM: MDA-MB-435
73.2 µM: BT-549 breast
not listed: HOP-92 NSCLC | SF-268 CNS | HS 578T breast
> 100 µM: all other assays above

C=C1C(=O)O[C@H]2C/C(C)=C/CC[C@]3(C)CCC[C@](C)(CC[C@@H]12)O3
20.7 µM: SF-539 CNS
16.4 µM: 786-0 renal
48 µM: HS 578T breast
15.6 µM: MDA-MB-435
17.4 µM: KM12 colon
3.38 µM: CCRF-CEM leukemia
16.3 µM: SF-268 CNS
15.2 µM: HOP-92 NSCLC
49.4 µM: MCF7 breast
18.5 µM: OVCAR-3 ovarian
15.7 µM: UO-31 renal
25.9 µM: T-47D breast
46.2 µM: MDA-MB-231 breast
13 µM: NCI-H522 lung
17.9 µM: SK-MEL-2 melanoma
34.2 µM: SN12C renal

Cc1ccc(NC(=O)CSc2nnc(Cc3ccccc3)o2)cc1
not listed: MDA-MB-435 | T-47D breast | MCF7 breast | HOP-92 NSCLC | MDA-MB-231 breast | HS 578T breast | BT-549 breast
> 100 µM: all other assays above

[N-]=[N+]=Nc1ccc2c(c1)Sc1ccccc1N2CCCCN1CCN(Cc2ccc(C(=O)c3ccc(CSCC(N)C(=O)O)cc3)cc2)CC1 (stereo not drawn)
3.16 µM: MDA-MB-435
48.1 µM: SK-MEL-2 melanoma
50.9 µM: MDA-MB-231 breast
33.7 µM: NCI-H522 lung
> 100 µM: OVCAR-3 ovarian | SN12C renal | UO-31 renal | CCRF-CEM leukemia | SF-268 CNS
7.91 µM: KM12 colon
54.4 µM: MCF7 breast
40.1 µM: BT-549 breast
38.2 µM: HOP-92 NSCLC
24.4 µM: 786-0 renal

Cc1cc(S(=O)(=O)NC2=NCCN2Cc2ccccc2)c(S)cc1Cl
not listed: T-47D breast | UO-31 renal | HOP-92 NSCLC | HS 578T breast
> 100 µM: all other assays above

C[C@@]1(Cc2ccccc2)C(=O)N2[C@@H](CO)C(c3ccccc3)O[C@]2(C)c2ccccc21 (stereo partly drawn)
> 100 µM: 786-0 renal | OVCAR-3 ovarian | SF-539 CNS | UO-31 renal | NCI-H522 lung | HOP-92 NSCLC | CCRF-CEM leukemia | SF-268 CNS | KM12 colon | SK-MEL-2 melanoma

CCCCNC(=NCc1ccccc1)NC#N
not listed: MDA-MB-435 | T-47D breast | MCF7 breast | MDA-MB-231 breast | HS 578T breast | BT-549 breast
> 100 µM: all other assays above

CN(C)/C=N\c1nncc2[nH]cnc12
not listed: MDA-MB-231 breast | SF-268 CNS | HS 578T breast
> 100 µM: all other assays above

COc1ccccc1-n1c(NN)nc2ccc(Br)cc2c1=O
93.1 µM: UO-31 renal
> 100 µM: 786-0 renal | MALME-3M melanoma | OVCAR-3 ovarian | SN12C renal | CCRF-CEM leukemia | SF-268 CNS | KM12 colon | SK-MEL-2 melanoma
63.2 µM: NCI-H522 lung
84.5 µM: SF-539 CNS

O=C(N/N=C(/c1nc2ccc([N+](=O)[O-])cc2[nH]c1=O)C(O)c1ccc([N+](=O)[O-])cc1)c1ccncc1 (stereo not drawn)
not listed: MDA-MB-435 | OVCAR-3 ovarian | T-47D breast | MCF7 breast | MDA-MB-231 breast | HS 578T breast | BT-549 breast
> 100 µM: all other assays above

CCOC(=O)c1cnc2c(ccc3[nH]cccc32)c1=O
not listed: MDA-MB-435 | T-47D breast | MCF7 breast | HOP-92 NSCLC | MDA-MB-231 breast | HS 578T breast | BT-549 breast
> 100 µM: all other assays above

O=C(Cc1ccc([N+](=O)[O-])c([N+](=O)[O-])c1CC(=O)C(=O)Nc1cc(Cl)ccc1Cl)C(=O)Nc1cc(Cl)ccc1Cl
not listed: MDA-MB-435 | T-47D breast | NCI-H522 lung | MCF7 breast | MDA-MB-231 breast | HS 578T breast | BT-549 breast
> 100 µM: all other assays above

C#CCNC(=O)NCCCCC(NC(C)=O)C(=O)NCc1ccccc1 (stereo not drawn)
not listed: MDA-MB-435 | T-47D breast | MCF7 breast | MDA-MB-231 breast | HS 578T breast | SK-MEL-2 melanoma | BT-549 breast
> 100 µM: all other assays above

CCCCCCSCC/C(C)=N\OC
not listed: T-47D breast | HS 578T breast
> 100 µM: all other assays above

COc1cc(OC)c2c(=O)c3c([N+](=O)[O-])cccc3n(C)c2c1
not listed: MDA-MB-435 | T-47D breast | MCF7 breast | MDA-MB-231 breast | HS 578T breast | BT-549 breast
> 100 µM: all other assays above

Oc1cc(CN2CCOCCOCCOCCOCC2)c(O)cc1CN1CCOCCOCCOCCOCC1
58.5 µM: 786-0 renal
> 93.4 µM: SK-MEL-2 melanoma
44 µM: CCRF-CEM leukemia
96.8 µM: SF-268 CNS
31.6 µM: NCI-H522 lung
49.7 µM: HOP-92 NSCLC
> 100 µM: OVCAR-3 ovarian | SF-539 CNS | UO-31 renal | KM12 colon

CC12C(=C(C#N)C(=N)N1c1ccc(Cl)c(Cl)c1)C=C(O)CC2SCCS(=O)(=O)O (stereo not drawn)
not listed: MDA-MB-435 | MALME-3M melanoma | T-47D breast | MCF7 breast | MDA-MB-231 breast | HS 578T breast | BT-549 breast
> 100 µM: all other assays above

CCOc1ccc(/C=C(\Cl)c2ccc(OC)cc2)cc1
> 100 µM: 786-0 renal | MALME-3M melanoma | SF-539 CNS | SN12C renal | UO-31 renal | NCI-H522 lung | HOP-92 NSCLC | CCRF-CEM leukemia | SF-268 CNS

C[C@@H]1CCC2C(C)(C)C(/C=C\C=O)C3(C)OC213 (stereo partly drawn)
75.6 µM: HS 578T breast
72.1 µM: MALME-3M melanoma
93.9 µM: HOP-92 NSCLC
not listed: SF-539 CNS | SN12C renal | T-47D breast | CCRF-CEM leukemia
> 100 µM: all other assays above

CCOC(=O)CCC(NC(=O)c1ccc(N=Cc2nc3ccccc3nc2-c2ccccc2)cc1)C(=O)OCC (stereo not drawn)
not listed: MDA-MB-435 | T-47D breast | MCF7 breast | MDA-MB-231 breast | HS 578T breast | BT-549 breast
> 100 µM: all other assays above

CCOC(=O)N(C)C(=C(F)F)C(F)(F)F
75.8 µM: CCRF-CEM leukemia
46.2 µM: MDA-MB-435
44.5 µM: SK-MEL-2 melanoma
65.2 µM: HOP-92 NSCLC
33.5 µM: MALME-3M melanoma
72 µM: 786-0 renal
84.2 µM: MDA-MB-231 breast
78.3 µM: SF-539 CNS
92.1 µM: T-47D breast
> 100 µM: OVCAR-3 ovarian | UO-31 renal | MCF7 breast | HS 578T breast | KM12 colon
97.4 µM: SF-268 CNS

C/C(=N/NC(=O)C[n+]1ccccc1)C(CN(CC(C)C)CC(C)C)C(=O)Nc1ccc(C)cc1C (stereo not drawn)
> 100 µM: 786-0 renal | MALME-3M melanoma | SF-539 CNS | SN12C renal | NCI-H522 lung | HOP-92 NSCLC | CCRF-CEM leukemia | SF-268 CNS | SK-MEL-2 melanoma
82.8 µM: UO-31 renal

Clc1ccc(CCc2ccncn2)c(Cl)c1
94 µM: UO-31 renal
not listed: MDA-MB-435 | T-47D breast | MCF7 breast | MDA-MB-231 breast | CCRF-CEM leukemia | HS 578T breast | BT-549 breast
> 100 µM: all other assays above

CCOC(=O)[C@@H]1ON2O[C@H](OC3CCCCC3c3ccccc3)C[C@H]3OC(=O)[C@@H]1C32 (stereo partly drawn)
0.614 µM: CCRF-CEM leukemia
not listed: MALME-3M melanoma | SK-MEL-2 melanoma | BT-549 breast
> 100 µM: all other assays above

CCN(CC)CCC1(C2CCCCC2)CCC(=O)NC1=O (stereo not drawn)
not listed: MDA-MB-435 | T-47D breast | MCF7 breast | HOP-92 NSCLC | MDA-MB-231 breast | HS 578T breast | BT-549 breast
> 100 µM: all other assays above

CC/C(=N/O)c1ccc2[nH]c3c(C)cc([N+](=O)[O-])c(C)c3c2c1
not listed: MDA-MB-435 | T-47D breast | MCF7 breast | HOP-92 NSCLC | MDA-MB-231 breast | HS 578T breast | BT-549 breast
> 100 µM: all other assays above

CC1(C)OCN(c2ccc(S(N)(=O)=O)cc2)Cn2c1nc1ccccc12
not listed: MDA-MB-435 | T-47D breast | MCF7 breast | MDA-MB-231 breast | HS 578T breast | BT-549 breast
> 100 µM: all other assays above

CSC1=C(C(=O)Nc2ccc(C)cc2)C(N)=NC1=O
not listed: MALME-3M melanoma | OVCAR-3 ovarian | SN12C renal | NCI-H522 lung | SK-MEL-2 melanoma | BT-549 breast
> 100 µM: all other assays above
